Measurements reported in US9084422B2, “Anthranilamides compositions” (E I DU PONT DE NEMOURS AND COMPANY, priority 2001, dated 2015).

Test system: tobacco budworm (Heliothis virescens)
Assay: Test H: soil systemic control of tobacco budworm on cotton
Format: in vivo
Conditions: soil treatment at 10 ppm
Experimental: For evaluating soil systemic control of tobacco budworm (Heliothis virescens), cotton plants were grown in sassafras soil in 15-cm pots in aluminum trays. When the plants reached square stage (bud formation on the plant) the plants were treated with the test compounds.
Test compounds were formulated in 0.25 mL of acetone and then diluted with water to provide solutions of 1, 5, 10 and 50 ppm. 10 mL of the treatment solutions were added to the pots weekly for four weeks, with four replicates of each treatment rate. One day after the second, third and fourth treatments, 35-50 first instar Heliothis virescens larvae were brushed on each plant with paintbrushes and placed on the terminal area, squares, and bolls. Five days after the last infestation with larvae the plants were rated for damage. Of the compounds tested, the following provided excellent levels of plant protection at 10 ppm (10% or less feeding damage): 16.

Compound: Cc1cc(Br)cc(C(=O)NC(C)C)c1NC(=O)c1cc(Br)nn1-c1ncccc1Cl [Compound 16]
- protection of squares and bolls: no feeding or minimal sepal damage
- feeding damage (excellent levels of plant protection) (10 mL weekly for four weeks, rated five days after last infestation): ≤ 10%
